Source: ChEMBL document CHEMBL2062447, “The cephalostatins. 22. synthesis of bis-steroidal pyrazine pyrones (1)” (2012)
pEC50: −log10 of the molar value.

What follows are compounds tested on P388 (assay: Growth inhibition of mouse P388 cells). Details: read-out: ED50 (the source's name).
Type: functional

**Q.** `CC(=O)O[C@H]1CC[C@H]2[C@@H]3CC[C@H]4Cc5nc6c(nc5C[C@]4(C)[C@H]3CC[C@]12C)C[C@@H]1CC[C@@H]2[C@H](CC[C@]3(C)[C@@H](OC(C)=O)CC[C@@H]23)[C@@]1(C)C6` was tested. Which pEC50 did it give?
**A.** Its pEC50 is 4.04.

**Q.** With `C[C@@H]1[C@]2(O[C@H]3C=C4[C@@H]5CC[C@H]6Cc7nc8c(nc7C[C@]6(C)[C@H]5C[C@@H](O)[C@]4(C)[C@]31O)C[C@@H]1CC[C@H]3C4=CC[C@@H]5[C@H](C)[C@@]6(OC[C@]45C(=O)C[C@@H]3[C@@]1(C)C8)OC(C)(C)C[C@H]6O)O[C@](C)(CO)C[C@H]2O` [CEPHALOSTATIN 1] as the compound, how does the pEC50 read?
**A.** Its pEC50 is 9.00.

**Q.** How did the pEC50 turn out when `C[C@]12Cc3nc4c(nc3C[C@@H]1CC[C@@H]1[C@@H]2[C@@H](O)C[C@]2(C)/C(=C/[C@@H]3CC(=O)C=CO3)CC[C@@H]12)C[C@@]1(C)[C@@H](CC[C@@H]2[C@@H]1[C@@H](O)C[C@]1(C)/C(=C/[C@H]3CC(=O)C=CO3)CC[C@@H]21)C4` was run?
**A.** Its pEC50 is 4.60.

**Q.** `C[C@]12Cc3nc4c(nc3C[C@@H]1CC[C@H]1[C@H]3CC=C(c5ccc(=O)oc5)[C@@]3(C)CC[C@@H]12)C[C@@]1(C)[C@@H](CC[C@H]2[C@H]3CC=C(c5ccc(=O)oc5)[C@@]3(C)CC[C@@H]21)C4` was tested. Which pEC50 did it give?
**A.** Its pEC50 is 4.24.

**Q.** With `C[C@]12Cc3nc4c(nc3C[C@@H]1CC[C@@H]1[C@@H]2CC[C@]2(C)C(OS(=O)(=O)C(F)(F)F)=CC[C@@H]12)C[C@@]1(C)[C@@H](CC[C@@H]2[C@@H]1CC[C@]1(C)C(OS(=O)(=O)C(F)(F)F)=CC[C@@H]21)C4` as the compound, how does the pEC50 read?
**A.** The pEC50 was 4.38.

**Q.** How did the pEC50 turn out when `C[C@]12Cc3nc4c(nc3C[C@@H]1CC[C@@H]1[C@@H]2CC[C@]2(C)C(=O)CC[C@@H]12)C[C@@]1(C)[C@@H](CC[C@@H]2[C@@H]1CC[C@]1(C)C(=O)CC[C@@H]21)C4` was run?
**A.** The pEC50 was 3.92.

**Q.** With `C[C@@H]1[C@]2(O[C@H]3C=C4[C@@H]5CC[C@H]6Cc7nc8c(nc7C[C@]6(C)[C@H]5C[C@@H](O)[C@]4(C)[C@]31O)C[C@@H]1CC[C@H]3C4=C[C@@H]5O[C@]6(O[C@](C)(CO)C[C@H]6O)[C@@H](C)[C@]5(O)[C@@]4(C)[C@H](O)C[C@@H]3[C@@]1(C)C8)O[C@](C)(CO)C[C@H]2O` [CEPHALOSTATIN 12] as the compound, how does the pEC50 read?
**A.** Its pEC50 is 7.12.
